Publication PMC7999550, “Novel Multifunctional Ascorbic Triazole Derivatives for Amyloidogenic Pathway Inhibition, Anti-Inflammation, and Neuroprotection” (Molecules, 2021)

Key:
BACE1 = biological target: T1, BACE1 (Homo sapiens, UniProt P56817); assay: β-Secretase (BACE1) inhibition assay (FRET); type: biochemical; conditions: for inhibition at 400 µM: at a concentration of 400 µM, mean ± SEM, n = 3
T1 construct: purchased Sino Biological, Beijing, China
Description: All ascorbic derivatives (2a–2c and 5a–5c), at a concentration of 400 µM, were evaluated for β-secretase inhibitory activities by using the FRET assay. Briefly, the reaction composing 30 µL of 0.01 unit/µL BACE1 enzyme stock solution, 20 µL of 5% DMSO of test compound, 30 µL of sodium acetate buffer (pH 4.5), and 20 µL of 125 µM β-secretase substrate IV (Calbiochem®, San Diego, CA, USA) was incubated at 37 °C for 30 min. Fluorescence was then measured at Ex = 380 nm and Em = 510 nm using a SpectraMax Gemini EM™, San Jose, CA, USA [26, 61]. β-secretase inhibitor I (Anaspec®, Fremont, CA, USA) was used as a positive control, at a concentration of 100 µM. The experiments were performed in triplicate. For the compounds exerting inhibitory activities more than 20%, an IC50 value was further determined.

amyloid-β (1-42) peptide = biological target: T2, amyloid-β (1-42) peptide (Homo sapiens, UniProt P05067); assay: Amyloid aggregation inhibition assay (ThT); type: biochemical; conditions: for inhibition at 400 µM: at a concentration of 400 µM, ThT, 48 h
T2 construct: 9 µL of 25 μM working solution of amyloid-β (1-42) peptide; purchased Anaspec, Fremont, CA, USA
Description: The ascorbic derivatives ware evaluated for activities of amyloid β aggregation inhibition at a concentration of 400 µM. Briefly, in each well of transparent plate, 9 µL of 25 μM working solution of amyloid-β (1-42) peptide and 1 µL of test compound were gently mixed and then incubated in the dark at 37 °C for 48 h. After the incubation, 200 µL of 5 µM ThT (Sigma®, Saint Louis, MO, USA) in 50 mM Tris buffer (pH 7.4) was added to each well. Fluorescence was then measured at Ex = 446 nm and Em = 480 nm using a SpectraMax Gemini EM™, San Jose, CA, USA [26, 62]. Curcumin was used as a positive control, at a concentration of 100 µM.

[1] = Antioxidant activity assay (DPPH); conditions: for Antioxidant %Inhibition (±SEM): at a concentration of 400 µM, mean ± SEM, n = 3
Description: […] The reaction was a mixture of 70 µL of DPPH solution (500 µM in 80% methanol), 10 µL of 80% methanol, and 20 µL of test compound. The reaction was incubated at room temperature in the dark for 30 min. The absorbance was then measured at 517 nm using Infinite 200 Pro™ (Tecan). Ascorbic acid was used as a positive control.

P19-derived neurons [2] = assay: Viability assay (XTT) on P19-derived neurons; type: cell-based; conditions: 18 h, nontoxic condition, versus 0.5% DMSO, derivatives at 1 nM
Description: (§1) P19 cells were grown in alpha minimal essential medium (α-MEM) supplemented with 7.5% newborn calf serum (NCS), 2.5% fetal bovine serum (FBS), and 1% antibiotics–antimycotic solution in a 5% CO2 humidified atmosphere at 37 °C. Cells in monolayer cultures were maintained in exponential growth by subculturing every two days.
(§2) Exponentially grown cultures were trypsinized and dissociated into single cells. P19 cells (2 × 10^6 cells/mL) were then suspended in 10 mL α-MEM supplemented with 5% FBS, 1% antibiotics–antimycotic solution, and 0.5 µM all transretinoic acid (RA) and seeded onto a 100-mm bacteriological culture dish. The cells formed large aggregates in suspension. After four days of RA treatment, the aggregates were dissociated by 5-mL glass measuring pipette and replated on poly-L-lysine-precoated multiwell plates (the multiwell plates were coated with 50 µg/mL poly-L-lysine, dissolved in PBS overnight, and sterilized under UV light for 30 min) at 7 × 10^4 cells/mL (150 µL/well in 96-well plate) in α-MEM supplemented with 10% FBS and 1% antibiotics–antimycotic solution and incubated for 24 h. Cytosine-1-β-D-arabinoside or Ara-C (10 µM) was added at day 1 after plating, and the medium was changed every two to three days. The differentiated neuronal cells, P19-derived neurons, were used after day 14 of the differentiation process.
The assay was carried out on P19-derived neurons cultured in a 96-well plate. After 14 days of the differentiation process, the α-MEM, supplemented with 10% FBS, 10 μM Ara-C, and 1% antibiotics–antimycotic solution, was removed and DMSO solutions of the sample, diluted with α-MEM supplemented with 10% FBS and 1% antibiotics–antimycotic solution in the presence of 10 μM Ara-C, were added to produce the concentrations of 10,000, 1000, 100, 10, and 1 nM. A concentration of DMSO was added to the cultures at 0.5% v/v. […] The OD value was determined by using a microplate reader at 450 nm. Data were expressed as mean ± SEM (n = 3, each n was run in triplicate), with the medium as a control, representing 100% cell viability. […]

COX-2 = COX-2 mRNA expression in LPS-activated RAW 264.7 (RT-qPCR); type: cell-based, murine; conditions: 10 and 100 nM, 1 h pretreatment before LPS, n = 3, p < 0.05
Description: (§3) Cell lines that reached 80% confluence within 48 h were selected for further gene expression study. […] The experiment was conducted in triplicate. After the cell lines were treated with the testing samples for one hour, 2 μg/mL LPS (lipopolysaccharide; Sigma-Aldrich, St. Louis, MO, USA) was added to the cell lines and then maintained in an incubator for another 24 h to induce the cell inflammatory process. […] Total RNA quality and quantity were examined by NanoDrop. An equivalent of 2000 ng total RNA from each sample was then reverse-transcribed to produce first-strand complementary DNA (cDNA) using a Tetro cDNA Synthesis Kit (Bioline USA Inc., Memphis, TN, USA), according to the manufacturer's instruction. Briefly, the total RNA template was mixed with 4 μ[…] buffer, 1 μL oligo dT(18), 1 μL dNTP mix […], 1 μL Rnase inhibitor, and 1 μL reverse transcriptase. Diethylpyrocarbonate (DEPC)-treated water was then added to a mixture to adjust the volume to a final 20-μl reaction. An incubation process to produce first strand cDNA was carried out in a thermal cycler (SensoQuest Labcycler). Primer annealing and strand extending occurred at 45 °C for 30 min and a reverse transcriptase was finally heat-inactivated at 85 °C for 5 min. The corresponding cDNA products were then used as a template in a quantitative polymerase chain reaction (qPCR) to study COX-2 and iNOS gene expressions, with GAPDH as a reference gene. The primer sequences for qPCR quantifications were as follows: COX-2: [NT] (reverse); iNOS: [NT] (reverse), and GAPDH: [NT] (reverse). […] Then, 20 μL qPCR reaction was prepared by mixing a 1-μL cDNA template with 0.8 μL forward primer […], 0.8 μL reverse primer […], 10 μL SYBR, and 7.4 μL DI water. Gene expression was measured in a 96-well plate using a BIO-RAD iCycler IQ^TM5 detection system. qPCR reaction was initially heated to 95 °C 10 min, and then underwent 40 cycles of 95 °C 15 s and 60 °C 1 min. […] Each corresponding expression was computed as a relative fold change using the 2^-delta delta Ct method, normalized to the GAPDH gene.

iNOS = iNOS mRNA expression in LPS-activated RAW 264.7 (RT-qPCR); type: cell-based, murine; conditions: 10 and 100 nM, 1 h pretreatment before LPS, n = 3, p < 0.05
Description: as §3

P19-derived neurons [3] = assay: Neuroprotective assay, serum-deprivation-induced oxidative stress (XTT); type: cell-based; conditions: 1 nM, p > 0.05
Description: as §1
as §2, with “Cytosine-1-β-D-arabinoside or Ara-C (10 µM) was added at day 1 after plating, and the medium was changed every two to three days. The differentiated neuronal cells, P19-derived neurons, were used after day 14 of the differentiation process.” left out
The assay was carried out with P19-derived neurons cultured in a 96-well plate by using the serum-deprivation method. […] Data were expressed as mean ± SEM (n = 3, each n was run in triplicate), with the medium as a control, representing 100% cell viability. […]

T1 sequence (P56817 46-501): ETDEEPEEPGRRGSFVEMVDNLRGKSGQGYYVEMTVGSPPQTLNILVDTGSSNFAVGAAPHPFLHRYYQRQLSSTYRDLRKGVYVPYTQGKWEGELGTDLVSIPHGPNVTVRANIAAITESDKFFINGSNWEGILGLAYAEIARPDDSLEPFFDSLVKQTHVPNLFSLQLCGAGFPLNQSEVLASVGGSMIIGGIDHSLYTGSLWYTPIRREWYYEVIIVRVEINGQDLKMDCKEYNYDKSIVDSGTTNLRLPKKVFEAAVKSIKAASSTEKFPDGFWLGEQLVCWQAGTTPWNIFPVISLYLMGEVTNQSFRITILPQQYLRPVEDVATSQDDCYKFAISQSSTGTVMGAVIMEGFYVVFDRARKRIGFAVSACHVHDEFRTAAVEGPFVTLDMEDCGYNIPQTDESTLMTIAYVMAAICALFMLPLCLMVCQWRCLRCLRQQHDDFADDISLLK
T2 sequence (P05067 672-713 limits assumed): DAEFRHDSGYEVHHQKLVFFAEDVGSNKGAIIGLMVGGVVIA

O=C1O[C@H]([C@@H](O)CO)C(O)=C1O [Ascorbic acid, reference compound]
inhibition at 400 µM (BACE1): 7.84 ± 1.75% | IC50 (amyloid-β (1-42) peptide): 146 µM | inhibition at 400 µM (amyloid-β (1-42) peptide; mean ± SEM, n = 3): 63.4 ± 0.87% | IC50 [1]: 21.3 µM | Antioxidant %Inhibition (±SEM) [1]: 94.85 ± 0.62% | cytotoxicity / cell viability of P19-derived neurons (P19-derived neurons [2]): decreased | expression of COX-2 gene compared to 0.001% DMSO control (COX-2): downregulate | expression of iNOS gene compared to 0.001% DMSO control (iNOS): downregulate

O=C1O[C@H]([C@@H](O)COCc2cn(Cc3ccc(O)cc3)nn2)C(O)=C1O [Compound 2a, (R)-3,4-Dihydroxy-5-((S)-1-hydroxy-2-((1-(4-hydroxybenzyl)-1H-1,2,3-triazol-4-yl)metho-xy)ethyl)furan-2(5H)-one]
inhibition at 400 µM (BACE1): 6.8 ± 2.69% | IC50 (amyloid-β (1-42) peptide): 319 µM | inhibition at 400 µM (amyloid-β (1-42) peptide; mean ± SEM, n = 3): 53 ± 0.6% | IC50 [1]: 206 µM | Antioxidant %Inhibition (±SEM) [1]: 66.54 ± 0.56 % | cytotoxicity / cell viability of P19-derived neurons (P19-derived neurons [2]): significantly higher viability than 0.5% DMSO | neuroprotective activity compared with quercetin (positive control) (P19-derived neurons [3]): no statistical differences

COc1cc(Cn2cc(COC[C@H](O)[C@H]3OC(=O)C(O)=C3O)nn2)ccc1O [Compound 2b, (R)-3,4-Dihydroxy-5-((S)-1-hydroxy-2-((1-(4-hydroxy-3-methoxybenzyl)-1H-1,2,3-triazol-4-yl)methoxy)ethyl)furan-2(5H)-one]
inhibition at 400 µM (BACE1): 6.29 ± 0.98% | IC50 (amyloid-β (1-42) peptide): 319 µM | inhibition at 400 µM (amyloid-β (1-42) peptide; mean ± SEM, n = 3): 51 ± 2.12% | IC50 [1]: 156 µM | Antioxidant %Inhibition (±SEM) [1]: 62.81 ± 2.62 % | neuroprotective activity compared with quercetin (positive control) (P19-derived neurons [3]): no statistical differences

O=C1O[C@H]([C@@H](O)COCc2cn(CC3Cc4c([nH]c5ccccc45)CN3)nn2)C(O)=C1O (stereo partly drawn) [Compound 2c, (R)-3,4-Dihydroxy-5-((S)-1-hydroxy-2-((1-((2,3,4,9-tetrahydro-1H-pyrido[3,4-b]indol-3-yl)-methyl)-1H-1,2,3-triazol-4-yl)methoxy)ethyl)furan-2(5H)-one]
IC50 (BACE1): 726 µM | inhibition at 400 µM (BACE1): 23.5 ± 1.66% | IC50 (amyloid-β (1-42) peptide): 92.3 µM | inhibition at 400 µM (amyloid-β (1-42) peptide; mean ± SEM, n = 3): 71.8 ± 1.42% | IC50 [1]: 72.3 µM | Antioxidant %Inhibition (±SEM) [1]: 94.67 ± 0.50% | expression of COX-2 gene compared to 0.001% DMSO control (COX-2): downregulate | expression of iNOS gene compared to 0.001% DMSO control (iNOS): downregulate | melting point: 172 to 174 °C

O=C1O[C@H]([C@@H](O)CO)C(OCc2cn(Cc3ccc(O)cc3)nn2)=C1O [Compound 5a, (R)-5-((S)-1,2-Dihydroxyethyl)-3-hydroxy-4-((1-(4-hydroxybenzyl)-1H-1,2,3-triazol-4-yl)-methoxy)furan-2(5H)-one]
inhibition at 400 µM (amyloid-β (1-42) peptide; mean ± SEM, n = 3): 34.5 ± 3.62% | IC50 [1]: 91.2 µM | Antioxidant %Inhibition (±SEM) [1]: 78.42 ± 0.93 %

COc1cc(Cn2cc(COC3=C(O)C(=O)O[C@@H]3[C@@H](O)CO)nn2)ccc1O [Compound 5b, (R)-5-((S)-1,2-Dihydroxyethyl)-3-hydroxy-4-((1-(4-hydroxy-3-methoxybenzyl)-1H-1,2,3-triazol-4-yl)methoxy)furan-2(5H)-one]
inhibition at 400 µM (amyloid-β (1-42) peptide; mean ± SEM, n = 3): 19.6 ± 1.83% | IC50 [1]: 103 µM | Antioxidant %Inhibition (±SEM) [1]: 77.37 ± 1.60 %

O=C1O[C@H]([C@@H](O)CO)C(OCc2cn(CC3Cc4c([nH]c5ccccc45)CN3)nn2)=C1O (stereo partly drawn) [Compound 5c, (R)-5-((S)-1,2-Dihydroxyethyl)-3-hydroxy-4-((1-((2,3,4,9-tetrahydro-1H-pyrido[3,4-b]indol-3-yl)methyl)-1H-1,2,3-triazol-4-yl)methoxy)furan-2(5H)-one]
IC50 (BACE1): 593 µM | inhibition at 400 µM (BACE1): 27.3 ± 1.41% | IC50 (amyloid-β (1-42) peptide): 136 µM | inhibition at 400 µM (amyloid-β (1-42) peptide; mean ± SEM, n = 3): 68.26 ± 0.67% | IC50 [1]: 62.9 µM | Antioxidant %Inhibition (±SEM) [1]: 85.84 ± 2.43% | cytotoxicity / cell viability of P19-derived neurons (P19-derived neurons [2]): significantly higher viability than 0.5% DMSO | expression of COX-2 gene compared to 0.001% DMSO control (COX-2): downregulate | expression of iNOS gene compared to 0.001% DMSO control (iNOS): downregulate | melting point: 144 to 146 °C

COc1cc(/C=C/C(=O)CC(=O)/C=C/c2ccc(O)c(OC)c2)ccc1O [Curcumin, reference compound]
inhibition at 100 µM (amyloid-β (1-42) peptide; positive control at 100 μM, mean ± SEM, n = 3): 94.5 ± 1.15%
